Assay results as given in US11679100B2, “Methods of enhancing immunity” (The Regents of the University of California, priority 2018, dated 2023).

Experiments:
[1] = test system: human MDA-MB-231 mammary xenograft tumors; experiment: Orthotopic MDA-MB-231 mammary xenograft model; type: in vivo, mice
Procedure: Alternatively, 5 million MDA-MB 231 human breast cancer cells were injected orthotopically in the 4th mammary fat pad of 6-week old female nude mice. The tumors were allowed to establish for 35 days (at least 0.5 cm in diameter) and the tumor bearing mice were divided into three treatment groups including, vehicle, LA1 only (i.p.; 2.0 mg/kg; daily) and Taxol only (i.p.; 2.5 mg/kg every other day). Treatment was initiated on day 35 and continued until the end-point at day 58 post-tumor when all the mice were sacrificed and tumor tissue was harvested for histological analysis. Palpable tumors were measured using digital calipers 3 times weekly during the entire experiment to develop tumor growth curves.

LLC lung tumor = experiment: LA1 treatment of subcutaneous LLC tumors; type: in vivo, mice
Procedure: LA1 treatment of LLC: 7.5×10^5 LLC cells were injected subcutaneously (s.c.) into the right flank of syngeneic 6- to 8-week old WT or CD11b^−/− mice. At 5-8 days post tumor inoculation, tumor-bearing mice were divided into the following treatment groups: Vehicle (6% DMSO, 1% Tween-20 in saline), LA1 (6 mg/kg dissolved in vehicle). Vehicle and LA1 was administered by intraperitoneal injection (i.p.) daily. Tumor burden was evaluated 2-3 times a week by caliper measurements and tumor volumes were calculated using the equation (l^2×w)/2. Tumors were harvested at 3 weeks post-tumor inoculation, formalin fixed, cryopreserved in OCT, or collagenase-digested for flow cytometric analysis.
Immunohistochemistry—Tumor samples were collected and cryopreserved in O.C.T. Sections (5 μm) were fixed in 100% cold acetone, blocked with 8% normal goat serum for 2 hours, and incubated with primary antibodies at […] for 2 hours at room temperature. Sections were washed 3 times with PBS and incubated with fluorescent secondary antibodies. Primary antibodies where: F4/80 (BM8, eBioscience), CD4 (H129.19, BD Bioscience), CD8 (53-6.7, BD Bioscience), CD31 (MEC13.1, BD Bioscience), desmin (RB0914-P1, LabVision, Thermo Scientific), and anti-smooth muscle actin (SMA) (1A4, Sigma-Aldrich). Slides were counterstained with 4′,6-diamidino-2-phenylindole (DAPI) to identify nuclei. Immunofluorescence images were collected on a Nikon microscope (Eclipse TE2000-U) and analyzed using Metamorph image capture and analysis software (Version 6.3r5, Molecular Devices). Pixels/field or cell number/field were quantified in five 100× fields from 5 biological replicates. For LA1 studies, immunohistochemical staining was quantified by counting marker positive cells in 3 different areas analyzed at 40× using a light microscope for each tumor tissue (n=4−6). Tissues that were stained with fluorochrome conjugated secondary antibodies were counter stained with DAPI and analyzed using the Zeiss 700 LSM confocal microscope and Zen software (Carl Zeiss Group, Hartford, Conn.).
Alternatively, immunostaining was performed on formalin fixed, paraffin-embedded tumor tissues. Deparaffinized tissue sections (5 μm) were either stained with hemotoxylin-eosin or were subjected to antigen retrieval by steam heating in an acidic pH solution (Citrate-based, Vector Laboratories) prior to immune staining for α-SMA (clone 1A4, Fisher Scientific), MMP9 (polyclonal rabbit, Abcam), S100A8 (goat polyclonal (M-19), Santa Cruz), CD31 (clone RM0032-1D12, Abcam), or ARG1 (sc-18351, Santa Cruz) at 4° C. overnight. Sections were washed and incubated with the appropriate fluorochrome conjugated secondary antibody (Invitrogen Life Technologies, Grand Island, N.Y.) or biotinylated secondary antibodies diluted in blocking buffer for 1 hr. at RT. For sections that were stained with biotinylated secondary antibodies, signal development was accomplished by using the DAB Substrate Kit (Vector Laboratories).
Flow Cytometry Staining and Analysis—Single cell suspensions (10^6 cells in 100 μL total volume) were incubated with Aqua Live Dead fixable stain (Life Technologies, Carlsbad, Calif.), FcR-blocking reagent (BD Biosciences, San Jose, Calif.) and fluorescently labeled antibodies and incubated at 4° C. for 1 h. Primary antibodies were: BV605-F4/80 (clone BM8, Biolegend #123133, 1.25 μg/ml), Alexa 700-CD45 (clone 30-F11, eBioscience #56-0451, ×0.6 μg/ml), CD11b-APC (clone M1/70, eBioscience #17-0012, 0.3 μg/ml), FITC-Gr1 (clone RB6-8C5, eBioscience #11-5931, 3 μg/ml), eF780-CD3 (clone 145-2C11, eBioscience #47-0031, 5 μg/ml), PE-Dazzle-CD4 (clone RM4-5, Biolegend #100565, 0.4 μg/ml), and BV605-CD8 (clone 53-6.7, Biolegend #100743, 1.75 μg/ml). Multicolor FACS Analysis was performed on a BD Canto RUO 11 Color Analyzer. All data analysis was performed using the flow cytometry analysis program FloJo (Treestar).

## O=C(O)c1ccc(-c2ccc(/C=C3\SC(=S)N(Cc4ccccc4)C3=O)o2)cc1 [LA1, leukadherin 1]
[1]; LA1 2.0 mg/kg i.p. daily
  MDA-MB-231 xenograft tumor growth: suppressed the growth of orthotopic, human MDA-MB-231 mammary xenograft tumors
[1]; mice which lack T cells
  MDA-MB-231 tumor growth relative to control treated animals: 50%
LLC lung tumor; LA1 6 mg/kg i.p. daily, Itgam-/- mice
  LLC lung tumor growth in Itgam-/- mice: not in Itgam−/− mice
LLC lung tumor; LA1 6 mg/kg i.p. daily, WT mice
  LLC lung tumor growth in WT mice: inhibited murine LLC lung tumor growth in WT
LLC lung tumor; LLC tumors
  CD8+ T cells in tumors: increased the presence of CD8+ T cells
  MHCII+ macrophages in tumors: increased the presence of MHCII+ macrophages
  expression of S100A8 and MMP9 in CD11b+ cells: inhibited expression of S100A8 and MMP9 in CD11b+ cells in LLC tumors
LLC lung tumor; tumors of FIGS. 5G, 5I and 5J (CL66, MDA-MB-231, LLC)
  numbers of SMA+ blood vessels in tumors: decreasing the numbers of SMA+blood vessels
